# Results reported in PMC9501633, “Synthesis, Characterisation and Mechanism of Action of Anticancer 3-Fluoroazetidin-2-ones” (Pharmaceuticals, 2022).
# Values joined by “and” are separate entries in the source; they are usually repeats but may differ in a detail not shown here. Equal values may be shown once. Read-outs that look alike come from different tables or passages of the source.
# Tests used:
# HCC-2998 = assay: NCI 60 cell line screen, Colon; assay type: cell-based, human
# SN12C = assay: NCI 60 cell line screen, Renal; assay type: cell-based, human
# DU-145 = assay: NCI 60 cell line screen, Prostate; assay type: cell-based, human
# HT29 = assay: NCI 60 cell line screen, Colon; assay type: cell-based, human
# HCT-116 = assay: NCI 60 cell line screen, Colon; assay type: cell-based, human
# 786–0 = assay: NCI 60 cell line screen, Renal; assay type: cell-based, human
# SNB-19 = assay: NCI 60 cell line screen, CNS; assay type: cell-based, human
# RXF 393 = assay: NCI 60 cell line screen, Renal; assay type: cell-based, human
# HOP-62 = assay: NCI 60 cell line screen, NSCLung; assay type: cell-based, human
# UO-31 = assay: NCI 60 cell line screen, Renal; assay type: cell-based, human
# OVCAR-8 = assay: NCI 60 cell line screen, Ovarian; assay type: cell-based, human
# SK-OV-3 = assay: NCI 60 cell line screen, Ovarian; assay type: cell-based, human
# OVCAR-5 = assay: NCI 60 cell line screen, Ovarian; assay type: cell-based, human
# EKVX = assay: NCI 60 cell line screen, NSCLung; assay type: cell-based, human
# IGROV1 = assay: NCI 60 cell line screen, Ovarian; assay type: cell-based, human
# HOP-92 = assay: NCI 60 cell line screen, NSCLung; assay type: cell-based, human
# SK-MEL-28 = assay: NCI 60 cell line screen, Melanoma; assay type: cell-based, human
# NCI/ADR-RES = assay: NCI 60 cell line screen, Ovarian; assay type: cell-based, human
# MOLT-4 = assay: NCI 60 cell line screen, Leukaemia; assay type: cell-based, human
# HS 578T = assay: NCI 60 cell line screen, Breast; assay type: cell-based, human
# SF-268 = assay: NCI 60 cell line screen, CNS; assay type: cell-based, human
# MDA-MB-435 = assay: NCI 60 cell line screen, Melanoma; assay type: cell-based, human
# SF-295 = assay: NCI 60 cell line screen, CNS; assay type: cell-based, human
# UACC-62 = assay: NCI 60 cell line screen, Melanoma; assay type: cell-based, human
# ACHN = assay: NCI 60 cell line screen, Renal; assay type: cell-based, human; details: one dose 10 µM
# MDA-MB-468 = assay: NCI 60 cell line screen, Breast; assay type: cell-based, human
# SR = assay: NCI 60 cell line screen, Leukaemia; assay type: cell-based, human
# NCI-H522 = assay: NCI 60 cell line screen, NSCLung; assay type: cell-based, human
# HL-60(TB) = assay: NCI 60 cell line screen, Leukaemia; assay type: cell-based, human
# A498 = assay: NCI 60 cell line screen, Renal; assay type: cell-based, human
# NCI 60 cell line panel = assay: NCI 60 cell line screen, whole panel; assay type: cell-based; details: for GI50: read-out: MG-MID GI50
# Method: The antiproliferative effects of selected compounds 33, 37 and 43 were initially evaluated in the NCI 60 cell line screen at 10 μM concentration (see Supplementary Materials Table S3). […] . […] .
# Compound 33 was next selected for evaluation in the NCI 60 cell line five-dose screen. The GI50 (50% growth inhibition), TGI (total growth inhibition) and LC50 (50% lethal concentration) were determined in the NCI panel of 60 cell lines, using the sulphorhodamine B (SRB) protein assay (Table 5). The GI50 value provides the growth inhibition of the selected compound, while the cytotoxic effect is evaluated in the LC50 value. […] . […] . Glioblastoma is an aggressive and fast-growing brain tumour with a median survival time of 9–16 months from diagnosis, and these tumours quickly evolve resistance to temozolomide chemotherapy, which is the only FDA-approved treatment. […] . Further mechanistic and cellular studies were carried out and are described below.
# aData obtained from NCI in vitro human tumour cell screen 1 dose assay (10 µM). 33 (NCI
# HCT-15 = assay: NCI 60 cell line screen, Colon; assay type: cell-based, human
# [1] = 5-dose assay, 48 h, mean-graph midpoint
smiles,measurement,setting,value
"COc1ccc(C2C(F)C(=O)N2c2cc(OC)c(OC)c(OC)c2)cc1F (stereo not drawn) [Compound 33, 3-Fluoro-4-(3-fluoro-4-methoxyphenyl)-1-(3,4,5-trimethoxyphenyl)azetidin-2-one]",TGI,"HCC-2998; 5-dose, 48 h",>100000 nM
same,GI50,"HCC-2998; Homo sapiens, 5-dose, 48 h",406 nM
same,inhibition at 10 µM,"HCC-2998; Homo sapiens, one dose 10 µM",67.1%
same,Growth %,HCC-2998; one dose 10 µM,32.93%
same,TGI,"SN12C; 5-dose, 48 h",>100000 nM
same,GI50,"SN12C; Homo sapiens, 5-dose, 48 h",482 nM
same,inhibition at 10 µM,"SN12C; Homo sapiens, one dose 10 µM",66.7%
same,Growth %,SN12C; one dose 10 µM,33.29%
same,TGI,"DU-145; 5-dose, 48 h",>100000 nM
same,GI50,"DU-145; Homo sapiens, 5-dose, 48 h",269 nM
same,inhibition at 10 µM,"DU-145; Homo sapiens, one dose 10 µM",90.5%
same,Growth %,DU-145; one dose 10 µM,9.46%
same,TGI,"HT29; 5-dose, 48 h",>100000 nM
same,GI50,"HT29; Homo sapiens, HT-29, 5-dose, 48 h",134 nM
same,inhibition at 10 µM,"HT29; Homo sapiens, HT-29, one dose 10 µM",96.3%
same,Growth %,HT29; one dose 10 µM,3.73%
same,TGI,"HCT-116; 5-dose, 48 h",>100000 nM
same,GI50,"HCT-116; Homo sapiens, 5-dose, 48 h",32.5 nM
same,inhibition at 10 µM,"HCT-116; Homo sapiens, one dose 10 µM",94.4%
same,Growth %,HCT-116; one dose 10 µM,5.59%
same,Growth %,"786–0; 786-0, one dose 10 µM",22.92%
same,TGI,"786–0; 786–0, 5-dose, 48 h",15100 nM
same,inhibition at 10 µM,"786–0; Homo sapiens, 786-0, one dose 10 µM",77.1%
same,GI50,"786–0; Homo sapiens, 786–0, 5-dose, 48 h",46.2 nM
same,TGI,"SNB-19; 5-dose, 48 h",>100000 nM
same,GI50,"SNB-19; Homo sapiens, 5-dose, 48 h",302 nM
same,inhibition at 10 µM,"SNB-19; Homo sapiens, one dose 10 µM",66%
same,Growth %,SNB-19; one dose 10 µM,34.05%
same,GI50,"RXF 393; 5-dose, 48 h",39.8 nM
same,TGI,"RXF 393; 5-dose, 48 h",60000 nM
same,GI50,"RXF 393; Homo sapiens, RXF 393, 48 h, 5-dose, 48 h",39 nM
same,inhibition at 10 µM,"RXF 393; Homo sapiens, one dose 10 µM",71.2%
same,Growth %,RXF 393; one dose 10 µM,28.8%
same,TGI,"HOP-62; 5-dose, 48 h",>100000 nM
same,GI50,"HOP-62; Homo sapiens, 5-dose, 48 h",511 nM
same,inhibition at 10 µM,"HOP-62; Homo sapiens, one dose 10 µM",68.2%
same,Growth %,HOP-62; one dose 10 µM,31.85%
same,TGI,"UO-31; 5-dose, 48 h",>100000 nM
same,GI50,"UO-31; Homo sapiens, 5-dose, 48 h",171 nM
same,inhibition at 10 µM,"UO-31; Homo sapiens, one dose 10 µM",56.8%
same,Growth %,UO-31; one dose 10 µM,43.2%
same,TGI,"OVCAR-8; 5-dose, 48 h",>100000 nM
same,GI50,"OVCAR-8; Homo sapiens, 5-dose, 48 h",368 nM
same,inhibition at 10 µM,"OVCAR-8; Homo sapiens, one dose 10 µM",86.3%
same,Growth %,OVCAR-8; one dose 10 µM,13.71%
same,TGI,"SK-OV-3; 5-dose, 48 h",>100000 nM
same,GI50,"SK-OV-3; Homo sapiens, 5-dose, 48 h",3450 nM
same,inhibition at 10 µM,"SK-OV-3; Homo sapiens, one dose 10 µM",66.6%
same,Growth %,SK-OV-3; one dose 10 µM,33.36%
same,TGI,"OVCAR-5; 5-dose, 48 h",>100000 nM
same,GI50,"OVCAR-5; Homo sapiens, 5-dose, 48 h",423 nM
same,inhibition at 10 µM,"OVCAR-5; Homo sapiens, one dose 10 µM",56.4%
same,Growth %,OVCAR-5; one dose 10 µM,43.57%
same,TGI,"EKVX; 5-dose, 48 h",>100000 nM
same,GI50,"EKVX; Homo sapiens, 5-dose, 48 h",203 nM
same,inhibition at 10 µM,"EKVX; Homo sapiens, one dose 10 µM",27.8%
same,Growth %,EKVX; one dose 10 µM,72.16%
same,TGI,"IGROV1; 5-dose, 48 h",>100000 nM
same,GI50,"IGROV1; Homo sapiens, IGROV-1, 5-dose, 48 h",94.6 nM
same,inhibition at 10 µM,"IGROV1; Homo sapiens, IGROV-1, one dose 10 µM",68.1%
same,Growth %,IGROV1; one dose 10 µM,31.88%
same,TGI,"HOP-92; 5-dose, 48 h",63900 nM
same,GI50,"HOP-92; Homo sapiens, 5-dose, 48 h",266 nM
same,inhibition at 10 µM,"HOP-92; Homo sapiens, one dose 10 µM",67.7%
same,Growth %,HOP-92; one dose 10 µM,32.28%
same,TGI,"SK-MEL-28; 5-dose, 48 h",>100000 nM
same,GI50,"SK-MEL-28; Homo sapiens, 5-dose, 48 h",15800 nM
same,inhibition at 10 µM,"SK-MEL-28; Homo sapiens, one dose 10 µM",42.3%
same,Growth %,SK-MEL-28; one dose 10 µM,57.74%
same,GI50,"NCI/ADR-RES; 5-dose, 48 h",42.4 nM
same,TGI,"NCI/ADR-RES; 5-dose, 48 h",>100000 nM
same,GI50,"NCI/ADR-RES; Homo sapiens, 48 h, 5-dose",42 nM
same,inhibition at 10 µM,"NCI/ADR-RES; Homo sapiens, one dose 10 µM",91.6%
same,Growth %,NCI/ADR-RES; one dose 10 µM,8.4%
same,TGI,"MOLT-4; 5-dose, 48 h",93400 nM
same,GI50,"MOLT-4; Homo sapiens, 5-dose, 48 h",146 nM
same,inhibition at 10 µM,"MOLT-4; Homo sapiens, one dose 10 µM",80.3%
same,Growth %,MOLT-4; one dose 10 µM,19.7%
same,TGI,"HS 578T; 5-dose, 48 h",>100000 nM
same,GI50,"HS 578T; Homo sapiens, 5-dose, 48 h",295 nM
same,inhibition at 10 µM,"HS 578T; Homo sapiens, one dose 10 µM",74.5%
same,Growth %,HS 578T; one dose 10 µM,25.54%
same,TGI,"SF-268; 5-dose, 48 h",>100000 nM
same,GI50,"SF-268; Homo sapiens, 5-dose, 48 h",324 nM
same,inhibition at 10 µM,"SF-268; Homo sapiens, one dose 10 µM",66.9%
same,Growth %,SF-268; one dose 10 µM,33.13%
same,GI50,"MDA-MB-435; Homo sapiens, 5-dose, 48 h",29.1 nM
same,inhibition at 10 µM,"MDA-MB-435; Homo sapiens, one dose 10 µM",99.7%
same,Growth %,MDA-MB-435; one dose 10 µM,0.35%
same,TGI,"SF-295; 5-dose, 48 h",>100000 nM
same,GI50,"SF-295; Homo sapiens, 5-dose, 48 h",53.5 nM
same,inhibition at 10 µM,"SF-295; Homo sapiens, one dose 10 µM",81.4%
same,Growth %,SF-295; one dose 10 µM,18.61%
same,TGI,"UACC-62; 5-dose, 48 h",>100000 nM
same,inhibition at 10 µM,"UACC-62; Homo sapiens, one dose 10 µM",46.5%
same,Growth %,UACC-62; one dose 10 µM,53.45%
same,inhibition at 10 µM,ACHN; Homo sapiens,67.3%
same,Growth %,ACHN,32.67%
same,GI50,"MDA-MB-468; Homo sapiens, 5-dose, 48 h",106 nM
same,inhibition at 10 µM,"MDA-MB-468; Homo sapiens, one dose 10 µM",77%
same,Growth %,MDA-MB-468; one dose 10 µM,23%
same,TGI,"SR; 5-dose, 48 h",>100000 nM
same,GI50,"SR; Homo sapiens, 5-dose, 48 h",40.8 nM
same,inhibition at 10 µM,"SR; Homo sapiens, one dose 10 µM",86.7%
same,Growth %,SR; one dose 10 µM,13.28%
same,GI50,"NCI-H522; 5-dose, 48 h",38.3 nM
same,TGI,"NCI-H522; 5-dose, 48 h",>100000 nM
same,GI50,"NCI-H522; Homo sapiens, NCI-H522, 48 h, 5-dose, 48 h",38 nM
same,inhibition at 10 µM,"NCI-H522; Homo sapiens, one dose 10 µM",108%
same,Growth %,NCI-H522; one dose 10 µM,-8.46%
same,TGI,"HL-60(TB); 5-dose, 48 h",399 nM
same,GI50,"HL-60(TB); Homo sapiens, 5-dose, 48 h",80.5 nM
same,inhibition at 10 µM,"HL-60(TB); Homo sapiens, one dose 10 µM",115%
same,Growth %,HL-60(TB); one dose 10 µM,-14.69%
same,TGI,"A498; 5-dose, 48 h",8080 nM
same,GI50,"A498; Homo sapiens, 5-dose, 48 h",847 nM
same,inhibition at 10 µM,"A498; Homo sapiens, one dose 10 µM",106%
same,Growth %,A498; one dose 10 µM,-5.5%
same,MG-MID TGI,NCI 60 cell line panel; [1],52480 nM and 52400 nM
same,GI50,NCI 60 cell line panel; [1],223 nM
same,GI50,"NCI 60 cell line panel; Homo sapiens, 60 cell, 48 h, 5-dose assay, 48 h, mean-graph midpoint",224 nM
same,inhibition at 10 µM,"NCI 60 cell line panel; Homo sapiens, 60 cell, one dose 10 μM, mean over the 60 cell lines, read-out: mean growth inhibition",76.3%
same,CC50,"NCI 60 cell line panel; Homo sapiens, 60 cell, 5-dose assay, 48 h, mean-graph midpoint, read-out: MG-MID LC50",95500 nM
same,CC50,"NCI 60 cell line panel; Homo sapiens, all cell lines except COLO 205 and SK-MEL-5, 5-dose, 48 h, read-out: LC50 (the source's name)",> 100000 nM
same,mean Growth %,"NCI 60 cell line panel; one dose 10 µM, mean over the cell lines",23.66%
same,TGI,"HCT-15; 5-dose, 48 h",>100000 nM
same,GI50,"HCT-15; Homo sapiens, 5-dose, 48 h",66.4 nM
same,inhibition at 10 µM,"HCT-15; Homo sapiens, one dose 10 µM",86.4%
same,Growth %,HCT-15; one dose 10 µM,13.63%
